The record followed here is patent US20240408169A1 (priority 2023, published 2024).

*1 amine or outer side, *2 acyl side, *3 side chain or, on linkers, in order; H or OH if unused. Where a SMILES comes first, the peptide text is derived from it. Bridges are numbered along the chain shown (N, C = ends). [ ]: non-standard residue; d: D form. The star is where a group is joined. X58 = CC(C)C(=O)N1CC=C(c2ccc(Cl)cc2C[C@@H](C(=O)[*:2])N(C)[*:1])CC1; X69 = CCOC(=O)N1CC=C(c2ccc(Cl)cc2C[C@@H](C(=O)[*:2])N(C)[*:1])CC1; NMePhe(5-Cl,2-O(2-Pym)) = CN[C@@H](Cc1cc(Cl)ccc1Oc1ncccn1)C(=O)O; X26 = CN([C@@H](Cc1cc(F)ccc1-c1cnn(C2CC2)c1)C(=O)[*:2])[*:1]; NMehhhLys(Me) = CN([C@@H](CCCCCCCN(C)[*:3])C(=O)[*:2])[*:1]; NMe(hhhLys) = CN([C@@H](CCCCCCCN[*:3])C(=O)[*:2])[*:1]; Oxane2carbonyl(2R-CF3) = O=C([C@@]1(C(F)(F)F)CCCCO1)*; X28 = CN([C@@H](Cc1cc(Cl)cnc1OC1CCC1)C(=O)[*:2])[*:1]; Cyclobutanecarbonyl(1-CF3) = O=C(C1(C(F)(F)F)CCC1)*; cBuCO(3,3-F2-1-CF3) = O=C(C1(C(F)(F)F)CC(F)(F)C1)*; Pro(trans-4-F) = O=C(O)[C@@H]1C[C@@H](F)CN1; Gly(cPr) = N[C@H](C(=O)O)C1CC1

Test [1] has as its target T1, CyclinE1/CDK2 (Homo sapiens, UniProt P24864).
T1 construct: purchased Eurofins, discovery 14-475
Nature of the test: Fluorescence Polarization (FP) competitive binding assay, Cyclin E1/Cdk2.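 Also: readings taken after two-hour equilibration at room temperature in HEPES buffer with NaCl, DTT, NP-40 and BSA, IC50 fitted from eight-concentration serial dilution series.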 The note with it: 10 nM Cyclin E1/Cdk2, 2 nM FAM probe; average of 2-3 independent experiments; read-out: Cyclin E FP IC50.

Test [2] deals with NCI-H1048 cells. Kind of test: MTT proliferation assay, NCI-H1048.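 Also: Dose-response in 96-well plates over 8 or 10 concentration points, with exposure spanning 3-4 cell doublings.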 Type of test: cell-based. The note with it: 5 days compound exposure, 1:3 serial dilution starting at 10 μM. In general terms: Formazan colour is commonly taken as a measure of viable cells.
The target in test [3] is T2, CyclinB1/CDK1 (Homo sapiens, UniProt P14635).
T2 construct: purchased Eurofins, discovery 14-450
Nature of the test: Fluorescence Polarization (FP) competitive binding assay, Cyclin B1/Cdk1.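 Also: fluorescence polarization read after equilibration at room temperature, with IC50 taken from serially diluted dose-response curves.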 The note with it: 10 nM Cyclin B1/Cdk1, 2 nM FAM probe; average of 2-3 independent experiments; read-out: Cyclin B FP IC50. In general terms: Fluorescence polarisation rises when a labelled molecule tumbles more slowly, as on binding a larger partner.

Test [4] relates to OVCAR3 cells. Nature of the test: MTT proliferation assay, OVCAR3.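 Also: compound given as an 8- or 10-point series, one day after plating, with exposure covering roughly 3-4 cell doublings.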 Type of test: cell-based. The note with it: 5 days compound exposure, 1:3 serial dilution starting at 10 μM.
Test [5] relates to WI-38 cells. Kind of test: MTT proliferation assay, WI-38.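 Also: Eight- or ten-point dilution series, with exposure length chosen to span about three to four cell doublings.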 It is filed as cell-based. The note with it: 3 days compound exposure, 1:3 serial dilution starting at 10 μM.
Test [6] has as its target T3, CyclinA2/CDK2 (Homo sapiens, UniProt P20248).
T3 construct: purchased CRELUX Protein Services
Kind of test: Fluorescence Polarization (FP) competitive binding assay, Cyclin A2/Cdk2.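 Also: plates equilibrated two hours at room temperature before polarization reading, IC50 fitted from eight-concentration compound titration curves.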 The note with it: 8 nM Cyclin A2/Cdk2, 2 nM FAM probe; average of 2-3 independent experiments; read-out: Cyclin A FP IC50.

For orientation: IC50 means the concentration needed to halve the response being measured. A word on the GI50: it is the concentration at which growth is held to half of that of the control. `CC(C)C[C@@H]1NC(=O)[C@@H](N(C)C(=O)[C@@H](NC(=O)[C@@H]2C[C@@H](F)CN2C(=O)C2(C(F)(F)F)CCC2)C2CC2)CCCCCCCN(C)C(=O)[C@H](Cc2cc(Cl)cnc2OC2CCC2)N(C)C1=O` [Example 139] ({Cyclobutanecarbonyl(1-CF3)}-[Pro(trans-4-F)][Gly(cPr)][NMehhhLys(Me)]L[X28]; lactam 3-C): the IC50 was 100 nM in test [1], 20 nM in test [3] and 20 nM in test [6]. For the same compound, the GI50 in test [2] was 70 nM; in test [4], 150 nM; in test [5], 6420 nM.

In the case of `CC(C)C[C@@H]1NC(=O)[C@@H](N(C)C(=O)[C@@H](NC(=O)[C@@H]2C[C@@H](F)CN2C(=O)C2(C(F)(F)F)CC(F)(F)C2)C2CC2)CCCCCCCN(C)C(=O)[C@H](Cc2cc(Cl)cnc2OC2CCC2)N(C)C1=O` [Example 140] ({cBuCO(3,3-F2-1-CF3)}-[Pro(trans-4-F)][Gly(cPr)][NMehhhLys(Me)]L[X28]; lactam 3-C), the figures for the IC50 in test [1], in test [3] and in test [6] were 120 nM, 20 nM and 20 nM, respectively. Besides, the GI50 in test [2] came to 50 nM; in test [4] it was 130 nM; in test [5], 9250 nM.

With `CC(C)C[C@@H]1NC(=O)[C@@H](N(C)C(=O)[C@@H](NC(=O)[C@@H]2C[C@@H](F)CN2C(=O)C2(C(F)(F)F)CCC2)C2CC2)CCCCCCCNC(=O)[C@H](Cc2cc(Cl)cnc2OC2CCC2)N(C)C1=O` [Example 141] ({Cyclobutanecarbonyl(1-CF3)}-[Pro(trans-4-F)][Gly(cPr)][NMe(hhhLys)]L[X28]; lactam 3-C), the IC50 in test [1] worked out at 100 nM; in test [3] it was 20 nM; in test [6], 40 nM. Besides, the GI50 is 90 nM in test [2], 190 nM in test [4] and 3390 nM in test [5].

As for `CC(C)C[C@@H]1NC(=O)[C@@H](N(C)C(=O)[C@@H](NC(=O)[C@@H]2C[C@@H](F)CN2C(=O)C2(C(F)(F)F)CC(F)(F)C2)C2CC2)CCCCCCCNC(=O)[C@H](Cc2cc(Cl)cnc2OC2CCC2)N(C)C1=O` [Example 142] ({cBuCO(3,3-F2-1-CF3)}-[Pro(trans-4-F)][Gly(cPr)][NMe(hhhLys)]L[X28]; lactam 3-C), the 50% inhibitory concentration (IC50) in test [1] is 150 nM; in test [3], 20 nM; in test [6], 40 nM. The GI50 stood at 110 nM in test [2], 190 nM in test [4] and 10200 nM in test [5].

With `CC(C)C[C@@H]1NC(=O)[C@@H](N(C)C(=O)[C@@H](NC(=O)[C@@H]2C[C@@H](F)CN2C(=O)C2(C(F)(F)F)CC(F)(F)C2)C2CC2)CCCCCCCN(C)C(=O)[C@H](Cc2cc(Cl)ccc2C2=CCN(C(=O)C(C)C)CC2)N(C)C1=O` [Example 143] ({cBuCO(3,3-F2-1-CF3)}-[Pro(trans-4-F)][Gly(cPr)][NMehhhLys(Me)]L[X58]; lactam 3-C), the half-inhibitory concentration (IC50) in test [1] was determined as 940 nM; in test [3] it was 20 nM; in test [6], 20 nM. In addition, the GI50 was 10 nM in test [2], 20 nM in test [4] and 5180 nM in test [5].

In the case of `CCOC(=O)N1CC=C(c2ccc(Cl)cc2C[C@H]2C(=O)N(C)CCCCCCC[C@H](N(C)C(=O)[C@@H](NC(=O)[C@@H]3C[C@@H](F)CN3C(=O)C3(C(F)(F)F)CC(F)(F)C3)C3CC3)C(=O)N[C@@H](CC(C)C)C(=O)N2C)CC1` [Example 145] ({cBuCO(3,3-F2-1-CF3)}-[Pro(trans-4-F)][Gly(cPr)][NMehhhLys(Me)]L[X69]; lactam 3-C), the IC50 in test [1] amounted to 1300 nM; in test [3], 20 nM; in test [6], 20 nM. Also, the GI50 in test [2] was found to be 70 nM; in test [4], 80 nM; in test [5] it was 10100 nM.

As for `CC(C)C[C@@H]1NC(=O)[C@@H](N(C)C(=O)[C@@H](NC(=O)[C@@H]2C[C@@H](F)CN2C(=O)[C@@]2(C(F)(F)F)CCCCO2)C2CC2)CCCCCCCN(C)C(=O)[C@H](Cc2cc(F)ccc2-c2cnn(C3CC3)c2)N(C)C1=O` [Example 147] ({Oxane2carbonyl(2R-CF3)}-[Pro(trans-4-F)][Gly(cPr)][NMehhhLys(Me)]L[X26]; lactam 3-C), the IC50 in test [1] worked out at 100 nM; in test [3], 20 nM; in test [6], 20 nM. Also, the values for the GI50 in test [2], in test [4] and in test [5] were 10 nM, 10 nM and 1240 nM, respectively.

Turning to `CC(C)C[C@@H]1NC(=O)[C@@H](N(C)C(=O)[C@@H](NC(=O)[C@@H]2C[C@@H](F)CN2C(=O)C2(C(F)(F)F)CCC2)C2CC2)CCCCCCCN(C)C(=O)[C@H](Cc2cc(Cl)ccc2Oc2ncccn2)N(C)C1=O` [Example 159] ({Cyclobutanecarbonyl(1-CF3)}-[Pro(trans-4-F)][Gly(cPr)][NMehhhLys(Me)]L[NMePhe(5-Cl,2-O(2-Pym))]; lactam 3-C), the IC50 was found to be 200 nM in test [1], 20 nM in test [3] and 80 nM in test [6]. The GI50 in test [2] came to 10 nM; in test [4], 20 nM; in test [5], 9450 nM.
